Results from US12599136B2, “Substituted isophthalic acid diamides and their use as herbicides” (Bayer Aktiengesellschaft, priority 2020, dated 2026).

Experiments:
Type in all cases: in vivo
[1] = tested on: Abutilon theophrasti; assay: Pre-emergence herbicidal action against ABUTH; conditions: visual score after 3 weeks vs untreated controls
Procedure, shortened: (§1)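 Pre-emergence soil-surface spray of formulated compound (WP or EC; 600 to 800 l/ha; 0.2% wetting agent) over seeds sown in sandy loam. After 3 weeks under greenhouse conditions, damage is estimated visually in percent against untreated plants.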

[2] = tested on: Alopecurus myosuroides; assay: Pre-emergence herbicidal action against ALOMY; conditions: 80 g/ha; visual score after 3 weeks vs untreated controls
Procedure, shortened: as §1

[3] = tested on: Amaranthus retroflexus; assay: Pre-emergence herbicidal action against AMARE; conditions: visual score after 3 weeks vs untreated controls
Procedure, shortened: as §1

[4] = tested on: Avena fatua; assay: Pre-emergence herbicidal action against AVEFA; conditions: 80 g/ha; visual score after 3 weeks vs untreated controls
Procedure, shortened: as §1

[5] = tested on: Echinochloa crus-galli; assay: Pre-emergence herbicidal action against ECHCG; conditions: 80 g/ha; visual score after 3 weeks vs untreated controls
Procedure, shortened: as §1

[6] = tested on: Matricaria inodora; assay: Pre-emergence herbicidal action against MATIN; conditions: visual score after 3 weeks vs untreated controls
Procedure, shortened: as §1

[7] = tested on: Digitaria sanguinalis; assay: Pre-emergence herbicidal action against DIGSA
Procedure, shortened: as §1

[8] = tested on: Setaria viridis; assay: Pre-emergence herbicidal action against SETVI; conditions: 80 g/ha
Procedure, shortened: as §1

[9] = tested on: Veronica persica; assay: Pre-emergence herbicidal action against VERPE
Procedure, shortened: as §1

[10] = tested on: Viola tricolor; assay: Pre-emergence herbicidal action against VIOTR
Procedure, shortened: as §1

[11] = tested on: Abutilon theophrasti; assay: Post-emergence herbicidal action against ABUTH
Procedure, shortened: (§2)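 Spray, one-leaf stage: WP or EC compound in water, 600–800 l/ha, 0.2% wetting agent. Plants held about 3 weeks in the greenhouse, then visually rated in percent of kill compared with untreated controls.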

[12] = tested on: Alopecurus myosuroides; assay: Post-emergence herbicidal action against ALOMY
Procedure, shortened: as §2

[13] = tested on: Amaranthus retroflexus; assay: Post-emergence herbicidal action against AMARE; conditions: visual assessment about 3 weeks after treatment
Procedure, shortened: as §2

[14] = tested on: Avena fatua; assay: Post-emergence herbicidal action against AVEFA; conditions: 20 g/ha, visual assessment about 3 weeks after treatment
Procedure, shortened: as §2

[15] = tested on: Echinochloa crus-galli; assay: Post-emergence herbicidal action against ECHCG; conditions: visual assessment about 3 weeks after treatment
Procedure, shortened: as §2

[16] = tested on: Matricaria inodora; assay: Post-emergence herbicidal action against MATIN; conditions: visual assessment about 3 weeks after treatment
Procedure, shortened: as §2

[17] = tested on: Digitaria sanguinalis; assay: Post-emergence herbicidal action against DIGSA
Experimental: Seeds of monocotyledonous and dicotyledonous weed and crop plants are laid out in sandy loam soil in wood-fiber pots, covered with soil and cultivated in a greenhouse under good growth conditions. 2 to 3 weeks after sowing, the test plants are treated at the one-leaf stage. The compounds of the invention, formulated in the form of wettable powders (WP) or as emulsion concentrates (EC), are then sprayed onto the green parts of the plants in the form of an aqueous suspension or emulsion at a water application rate equivalent to 600 to 800 l/ha, with addition of 0.2% wetting agent. After the test plants have been left to stand in the greenhouse under optimal growth conditions for about 3 weeks, the action of the preparations is assessed visually in comparison to untreated controls (herbicidal action in percent (%): 100% activity=the plants have died, 0% activity=like control plants). […] The tables below illustrate, in an illustrative manner, the post-emergence herbicidal action of the compounds of the invention, the herbicidal activity being stated in percent.

[18] = tested on: Viola tricolor; assay: Post-emergence herbicidal action against VIOTR
Procedure, shortened: as §2

[19] = tested on: Setaria viridis; assay: Post-emergence herbicidal action against SETVI; conditions: visual assessment about 3 weeks after treatment
Procedure, shortened: as §2

[20] = tested on: Veronica persica; assay: Post-emergence herbicidal action against VERPE; conditions: 20 g/ha, visual assessment about 3 weeks after treatment
Procedure, shortened: as §2

[21] = tested on: Pharbitis purpurea; assay: Post-emergence herbicidal action against PHBPU; conditions: 20 g/ha, visual assessment about 3 weeks after treatment
Procedure, shortened: as §2

| SMILES | Pre-emergence action against ABUTH ([1]; 20 g/ha) | Pre-emergence action against ABUTH ([1]; 80 g/ha) | Pre-emergence action against ALOMY [2] | Pre-emergence action against AMARE ([3]; 20 g/ha) | Pre-emergence action against AMARE ([3]; 80 g/ha) | Pre-emergence action against AVEFA [4] | Pre-emergence action against ECHCG [5] | Pre-emergence action against MATIN ([6]; 80 g/ha) | Pre-emergence action against DIGSA ([7]; 80 g/ha) | Pre-emergence action against SETVI [8] | Pre-emergence action against VERPE ([9]; 80 g/ha) | Pre-emergence action against VIOTR ([10]; 20 g/ha) | Pre-emergence action against VIOTR ([10]; 80 g/ha) | Post-emergence action against ALOMY ([12]; 20 g/ha) | Post-emergence action against AMARE in % ([13]; 5 g/ha) | Post-emergence action against AMARE in % ([13]; 20 g/ha) | Post-emergence action against ECHCG in % ([15]; 20 g/ha) | Post-emergence action against MATIN in % ([16]; 20 g/ha) | Post-emergence action against DIGSA in % ([17]; 20 g/ha) | Post-emergence action against VIOTR in % ([18]; 20 g/ha) | further results |
| --- | --- | --- | --- | --- | --- | --- | --- | --- | --- | --- | --- | --- | --- | --- | --- | --- | --- | --- | --- | --- | --- |
| CCN(CC)C(=O)c1c(C(F)(F)F)ccc(C(=O)Nc2nnnn2C)c1Cl [Example 1-135] | 100% | 100% | 100% | 100% | 100% | 90% | 90% | 100% | 100% | 100% | 90% | 100% | 100% | 90% | 80% | 80% | 90% | 80% | 90% | 90% | Pre-emergence action against MATIN ([6]; 20 g/ha): 90%; Post-emergence action against ABUTH ([11]; 5 g/ha): 80%; Post-emergence action against ABUTH ([11]; 20 g/ha): 90%; Post-emergence action against ALOMY ([12]; 5 g/ha): 80%; Post-emergence action against AVEFA in % [14]: 80%; Post-emergence action against ECHCG in % ([15]; 5 g/ha): 80%; Post-emergence action against DIGSA in % ([17]; 5 g/ha): 90% |
| CCn1nnnc1NC(=O)c1ccc(C(F)(F)F)c(C(=O)N(C)C)c1C [Example 2-19] | 80% | 100% | 90% | – | 100% | – | 90% | 90% | 100% | 100% | 90% | 80% | 100% | 80% | 80% | 90% | 90% | 80% | 90% | 100% | Pre-emergence action against DIGSA ([7]; 20 g/ha): 100%; Post-emergence action against ABUTH ([11]; 20 g/ha): 100%; Post-emergence action against SETVI in % ([19]; 5 g/ha): 80%; Post-emergence action against SETVI in % ([19]; 20 g/ha): 80%; Post-emergence action against VERPE in % [20]: 80%; Post-emergence action against VIOTR in % ([18]; 5 g/ha): 80% |
| CCn1nnnc1NC(=O)c1ccc(C(F)(F)F)c(C(=O)N(C)C2CC2)c1C [Example 2-21] | – | 100% | – | 100% | 100% | 80% | 100% | 100% | 100% | 100% | 100% | 100% | 100% | 90% | 100% | 100% | 90% | 90% | 90% | 100% | Pre-emergence action against MATIN ([6]; 20 g/ha): 90%; Pre-emergence action against DIGSA ([7]; 20 g/ha): 100%; Pre-emergence action against VERPE ([9]; 20 g/ha): 80%; Post-emergence action against ALOMY ([12]; 5 g/ha): 80%; Post-emergence action against ECHCG in % ([15]; 5 g/ha): 90%; Post-emergence action against MATIN in % ([16]; 5 g/ha): 80%; Post-emergence action against PHBPU in % [21]: 90%; Post-emergence action against DIGSA in % ([17]; 5 g/ha): 80%; Post-emergence action against SETVI in % ([19]; 5 g/ha): 80%; Post-emergence action against SETVI in % ([19]; 20 g/ha): 100%; Post-emergence action against VIOTR in % ([18]; 5 g/ha): 100% |
